Data reported in the supplement of paper PMC10627819.

Tests used:
B. subtilis 168 [1] = assay: fitness (endpoint OD595 vs no drug) (fraction); higher = more growth
Summary of the method: (§1)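 Plates with 384 wells were inoculated at OD595 0.01 using 30 µl of TSB, LB Lennox or CY, or 55 µl for S. pneumoniae. Incubation was at 37 °C, with OD595 measured every 30 min for 14 h. Fitness is the stationary-phase transition optical density over the robust mean of no-drug control wells, after first-reading background subtraction; it is capped at 1.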

S. pneumoniae D39V [2] = assay: as above
Summary of the method: as §1

S. aureus Newman [3] = assay: as above
Summary of the method: as §1

S. aureus DSM 20231 [4] = assay: as above
Summary of the method: as §1

B. subtilis 168 [5] = assay: Bliss interaction score (quartile over a dose matrix) (fitness difference); higher = more antagonism (negative = synergy)
Summary of the method: (§2)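 The Bliss score takes observed fitness and subtracts the expected fitness, calculated as a product of single-drug fitness values. Those single-drug values were inferred from the combination data. Fitness is OD595 at entry into stationary phase divided by the plate's robust no-drug mean, capped at 1, and the score is summarised by quartiles across technical, biological and donor/recipient replicates.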

S. pneumoniae D39V [6] = assay: as above
Summary of the method: as §2

S. aureus Newman [7] = assay: as above
Summary of the method: as §2

S. aureus DSM 20231 [8] = assay: as above
Summary of the method: as §2
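Wherever Bliss interaction score (quartile over a dose matrix) is given: first quartile when negative (synergy) and third quartile when positive (antagonism).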

COc1cccc2c1C(=O)c1c(O)c3c(c(O)c1C2=O)C[C@@](O)(C(=O)CO)C[C@@H]3O[C@H]1C[C@H](N)[C@H](O)[C@H](C)O1 [Doxorubicin] + CC1=C\[C@@H](O)CC(=O)Cc2nc(co2)C(=O)N2CCC=C2C(=O)O[C@H](C(C)C)[C@H](C)/C=C/C(=O)NC\C=C\1 [Virginiamycin M1]
fitness
Settings | first compound 0.25 µg/mL | first compound 0.5 µg/mL | first compound 0.625 µg/mL | first compound 1 µg/mL | first compound 1.25 µg/mL | first compound 2.5 µg/mL
B. subtilis 168 [1], partner 0.0625 µg/mL | – | – | 0.975 | – | 0.901 | 0.653
B. subtilis 168 [1], partner 0.125 µg/mL | – | – | 0.939 | – | 0.904 | 0.639
B. subtilis 168 [1], partner 0.25 µg/mL | – | – | 0.96 | – | 0.911 | 0.7
S. aureus DSM 20231 [4], partner 0.0625 µg/mL | – | – | 0.874 | – | 0.872 | 0.779
S. aureus DSM 20231 [4], partner 0.125 µg/mL | – | – | 0.944 | – | 0.903 | 0.82
S. aureus DSM 20231 [4], partner 0.25 µg/mL | – | – | 0.873 | – | 0.862 | 0.802
S. aureus Newman [3], partner 0.0625 µg/mL | – | – | 0.76 | – | 0.766 | 0.768
S. aureus Newman [3], partner 0.125 µg/mL | – | – | 0.795 | – | 0.802 | 0.756
S. aureus Newman [3], partner 0.25 µg/mL | – | – | 0.788 | – | 0.784 | 0.746
S. pneumoniae D39V [2], partner 0.5 µg/mL | 0.964 | 0.961 | – | 0.969 | – | –
S. pneumoniae D39V [2], partner 1 µg/mL | 0.997 | ≥ 1 | – | 0.951 | – | –
S. pneumoniae D39V [2], partner 2 µg/mL | 0.92 | 0.9 | – | 0.898 | – | –

fitness, one replicate
Settings | first compound 0.25 µg/mL | first compound 0.5 µg/mL | first compound 0.625 µg/mL | first compound 1 µg/mL | first compound 1.25 µg/mL | first compound 2.5 µg/mL
S. aureus DSM 20231 [4], partner 0.5 µg/mL | – | – | 0.873 | – | 0.803 | 0.706
S. aureus DSM 20231 [4], partner 1 µg/mL | – | – | 0.769 | – | 0.708 | 0.761
S. aureus Newman [3], partner 0.5 µg/mL | – | – | 0.81 | – | 0.809 | 0.703
S. aureus Newman [3], partner 1 µg/mL | – | – | 0.924 | – | 0.871 | 0.793
S. aureus Newman [3], partner 2 µg/mL | – | – | 0.837 | – | 0.696 | 0.664
S. pneumoniae D39V [2], partner 0.15 µg/mL | 0.86 | 0.865 | – | 0.911 | – | –
S. pneumoniae D39V [2], partner 0.3 µg/mL | 0.823 | 0.836 | – | 0.888 | – | –

Settings | Bliss interaction score
B. subtilis 168 [5] | 0.0827
S. aureus DSM 20231 [8] | -0.0467
S. aureus Newman [7] | -0.0655
S. pneumoniae D39V [6] | 0.0614

COc1cccc2c1C(=O)c1c(O)c3c(c(O)c1C2=O)C[C@@](O)(C(=O)CO)C[C@@H]3O[C@H]1C[C@H](N)[C@H](O)[C@H](C)O1 [Doxorubicin] + CCN(CC)CCOC(=O)c1ccc(N)cc1 [Procaine]
fitness
Settings | first compound 0.25 µg/mL | first compound 0.5 µg/mL | first compound 0.625 µg/mL | first compound 1 µg/mL | first compound 1.25 µg/mL | first compound 2.5 µg/mL
B. subtilis 168 [1], partner 85.5 µg/mL | – | – | 0.934 | – | 0.89 | 0.672
B. subtilis 168 [1], partner 171 µg/mL | – | – | 0.961 | – | 0.894 | 0.654
B. subtilis 168 [1], partner 342 µg/mL | – | – | 0.887 | – | 0.879 | 0.702
S. aureus DSM 20231 [4], partner 85.5 µg/mL | – | – | 0.829 | – | 0.823 | 0.748
S. aureus DSM 20231 [4], partner 171 µg/mL | – | – | 0.926 | – | 0.916 | 0.832
S. aureus DSM 20231 [4], partner 342 µg/mL | – | – | 0.898 | – | 0.866 | 0.804
S. aureus Newman [3], partner 85.5 µg/mL | – | – | 0.801 | – | 0.823 | 0.745
S. aureus Newman [3], partner 171 µg/mL | – | – | 0.79 | – | 0.835 | 0.752
S. aureus Newman [3], partner 342 µg/mL | – | – | 0.815 | – | 0.747 | 0.764
S. pneumoniae D39V [2], partner 85.5 µg/mL | 0.988 | ≥ 1 | – | 0.917 | – | –
S. pneumoniae D39V [2], partner 171 µg/mL | 0.963 | 0.98 | – | 0.892 | – | –
S. pneumoniae D39V [2], partner 342 µg/mL | 0.97 | 0.996 | – | 0.855 | – | –

Settings | Bliss interaction score
B. subtilis 168 [5] | 0.095
S. aureus DSM 20231 [8] | -0.0642
S. aureus Newman [7] | -0.058
S. pneumoniae D39V [6] | 0.07
